Assay [1] deals with hair growth on scalp of subjects with baldness / hair loss. In words: compositions tested in humans (topical application to scalp). The assay is classed as in vivo, human. Particulars: summary statement; animals and humans / applied directly to scalp. The method, then:
The composition is applied to scalp ideally after thoroughly cleansing hair with soap and water to remove as much sebaceous secretions as possible. Sufficient quantity of the composition is applied to balding areas of scalp repeatedly, 1-2 times per day and applications continued for several days or weeks. It may be necessary, as it has been observed, to repeat the application frequently to keep the new follicular growth and to initiate further growth.
Finally, the compositions were tested in humans. Ten subjects with advanced male pattern baldness used test preparation #1 and #2 (five subjects each) as described above for a period of three weeks. […] Three female subjects with thinning hair used composition #3 and #4 for a period of five weeks daily.

The next assay concerns stem cells. In words: tritiated thymidine labeling of stem cells (murine skin explants; label retaining cells in mice). It is filed as cell-based, mouse. The source says:
The effectiveness of stimulant of stem cells can be readily evaluated using the technique of tritiated thymidine labeling. We studied the effectiveness of the invention on stimulation of stem cell populations by using the technique of tritiated thymidine labeling of stem cells. The effects of compositions described here were studied on explants of murine skin. Explant cultures were serially harvested at daily intervals for the first 4 days of exposure, and composition effects on ^3H-TdR (tritiated thymidine) incorporation assessed in accordance with standard techniques. Because of the slow- cycling nature of stem cells, repeated administration of tritiated thymidine is necessary. After the labeling, the cells are chased for four weeks wherein the stem cells retain the label longer and are thus quantitated comparatively to control.
In another series of experiments, a cohort of mice was continuously labeled for 2 weeks with ^3H- TdR and then allowed to rest for 4 weeks. Once labeled, cells that cycle slowly retained isotopes for an extended period of time. Twice daily, subcutaneous injections of ^3H-TdR were given to newborn mice over the first seven days of life resulting in the labeling of almost 100% of nuclei in mouse epidermis, hair follicles, sebaceous glands, fibroblasts, and endothelial cells. […]

Structures are written as SMILES.

As for `CC[C@H](CC[C@@H](C)[C@H]1CC[C@H]2[C@@H]3CC=C4C[C@@H](O)CC[C@]4(C)[C@H]3CC[C@]12C)C(C)C` [β-sitosterol], the growth of hair entry in assay [1] was “enhance growth of hair”. Besides, in the assay on stem cells, the “activity of stem cells and/or bulge cells responsible for growth of hair” value was “significantly enhances”.

(Values after patent US20020183297A1, “Pharmaceutical composition for the treatment of alopecia” (priority 2001, published 2002).)
